From patent publication US20260223844A1, “METHODS AND COMPOSITIONS FOR ALTERING METABOLITES IN HOP PLANTS” (Impello Biosciences, Inc., priority 2023, published 2026)

What was measured:
Type in all cases: in vivo, Humulus lupulus
[1] = system: Cashmere Hops; test: Bitter acids analysis of treated hop plants, Example 2 (HPLC, modified EBC 7.8); conditions: MDJ foliar spray 1 mM or 5 mM vs untreated control
Experimental: (§1) Hop plants were treated with illustrative elicitor compositions of the disclosure to determine the effect of treatment on hop terpene content. The hop cultivar was Cashmere Hops. The treatments were as follows: Control (“CK2”)—Untreated control; TR1—1 mM MDJ Foliar Spray: TR2—5 mM MDJ Foliar Spray.
(§2) Harvested hops were analyzed for total oil, beta acid, alpha acid, terpene, and thiol content. Total oil analysis was performed according to Analytica EBC Method 7.10, employing steam distillation. Alpha/beta/iso-alpha acid analysis was performed using HPLC, employing a modified version of Analytica EBC Method 7.8. Terpene analysis was performed according to Analytica EBC Method 7.12, employing Capillary Gas Chromatography Flame Ionization Detection. Thiol composition was analyzed via gas chromatography with sulfur chemiluminescence detector (GC-SCD).

[2] = system: Cashmere Hops; test: Terpene analysis of treated hop plants, Example 2 (EBC 7.12, GC-FID); conditions: 5 mM MDJ foliar spray vs control
Experimental: as §1, §2

[3] = system: CTZ hop plants; test: Total oil analysis of treated hop plants, Example 4
Experimental: (§3) Hop plants were treated with illustrative elicitor compositions of the disclosure to determine the effect of treatment on hop bitter acid and terpene content. The hop cultivar was CTZ, also known as Columbus, Tomahawk, or Zeus, three trade names owned by various private corporations for the same variety of hop. The treatments were as follows: 1 mM, 5 mM, and 10 mM MDJ Foliar Spray. Harvested hops were analyzed for total oil, beta acid, alpha acid, and terpene content. Total oil and terpene analysis was performed according to a modified version of Analytica EBC Method 7.12, employing Capillary Gas Chromatography Flame Ionization Detection. Plants were measured in triplicate from each treatment group; results represent the average of three samples. Alpha/beta/iso-alpha acid analysis was performed using HPLC, employing a modified version of Analytica EBC Method 7.8.

[4] = system: CTZ hop plants; test: Alpha/beta acid analysis of treated hop plants, Example 4 (HPLC, modified EBC 7.8)
Experimental: as §3

[5] = system: CTZ hop plants; test: Terpene analysis of treated hop plants, Example 4 (modified EBC 7.12, GC-FID); conditions: % of overall terpene content; for Terpene content: Geranyl acetate 1*: (2E) isomer; for Terpene content: Geranyl acetate 2**: (2Z) isomer; for Terpene content: Nerolidol 1*: (E) isomer; for Terpene content: Nerolidol 2**: (Z) isomer
Experimental: as §3

SMILES: CCCCCC1C(=O)CCC1CC(=O)OC (stereo not drawn) [MDJ, methyl dihydrojasmonate]
- content of the alpha acid analogue cohumulone [1]: decreased
- beta acid content ([1]; especially at 5 mM): statistically significant increase
- caryophyllene content [2]: increased
- caryophyllene oxide content [2]: decreased
- citral content [2]: decreased
- farnesene content [2]: increased
- geraniol content [2]: increased
- humulene content [2]: increased
- methyl heptanoate content [2]: decreased
- methyl laurate content [2]: decreased
- methyl octanoate content [2]: increased
- methyl thiohexanoate content [2]: increased
- myrcene content [2]: decreased
- nerolidol content [2]: increased
- ocimene content [2]: increased
- q-pinene content [2]: increased
- β-pinene content [2]: decreased
- Total oil ([3]; 1 mM MDJ foliar spray): 1.43 mL/100 g
- Total oil ([3]; 5 mM MDJ foliar spray): 2.22 mL/100 g
- Total oil ([3]; 10 mM MDJ foliar spray): 1.72 mL/100 g
- Alpha Acids ([4]; 1 mM MDJ foliar spray): 4.83%
- Beta Acids ([4]; 1 mM MDJ foliar spray): 3.53%
- Cohumulone ([4]; 1 mM MDJ foliar spray): 21.43 % alpha
- Colupulone ([4]; 1 mM MDJ foliar spray): 43.53 % beta
- Alpha Acids ([4]; 5 mM MDJ foliar spray): 6.10%
- Beta Acids ([4]; 5 mM MDJ foliar spray): 3.83%
- Cohumulone ([4]; 5 mM MDJ foliar spray): 23.37 % alpha
- Colupulone ([4]; 5 mM MDJ foliar spray): 49.3 % beta
- Alpha Acids ([4]; 10 mM MDJ foliar spray): 7.80%
- Beta Acids ([4]; 10 mM MDJ foliar spray): 4.23%
- Cohumulone ([4]; 10 mM MDJ foliar spray): 26.03 % alpha
- Colupulone ([4]; 10 mM MDJ foliar spray): 43.47 % beta
- Colupolone content, as a percentage of overall beta acids ([4]; 1, 5, 10 mM MDJ foliar spray): highest at 5 mM treatment
- alpha acid content ([4]; 1, 5, 10 mM MDJ foliar spray): dose-dependent increase
- beta acid content ([4]; 1, 5, 10 mM MDJ foliar spray): dose-dependent increase
- Cohumulone content as a percentage of overall alpha acids ([4]; with increasing MDJ concentration (1, 5, 10 mM)): increased
- Terpene content: 2-Undecanone ([5]; 1 mM MDJ foliar spray): 0.00%
- Terpene content: Alpha-pinene ([5]; 1 mM MDJ foliar spray): 0.37%
- Terpene content: Beta-ionone ([5]; 1 mM MDJ foliar spray): 0.08%
- Terpene content: Beta-pinene ([5]; 1 mM MDJ foliar spray): 0.36%
- Terpene content: Caryophyllene ([5]; 1 mM MDJ foliar spray): 16.6%
- Terpene content: Caryophyllene oxide ([5]; 1 mM MDJ foliar spray): 0.12%
- Terpene content: Citral ([5]; 1 mM MDJ foliar spray): 0.32%
- Terpene content: Citronellene ([5]; 1 mM MDJ foliar spray): 0.42%
- Terpene content: Citronellol ([5]; 1 mM MDJ foliar spray): 0.00%
- Terpene content: Farnesene ([5]; 1 mM MDJ foliar spray): 0.00%
- Terpene content: Geraniol ([5]; 1 mM MDJ foliar spray): 0.52%
- Terpene content: Humulene ([5]; 1 mM MDJ foliar spray): 38.7%
- Terpene content: Limonene ([5]; 1 mM MDJ foliar spray): 0.10%
- Terpene content: Linalool ([5]; 1 mM MDJ foliar spray): 0.21%
- Terpene content: Methyl Heptanoate ([5]; 1 mM MDJ foliar spray): 0.06%
- Terpene content: Methyl Laurate ([5]; 1 mM MDJ foliar spray): 0.39%
- Terpene content: Methyl Octanoate ([5]; 1 mM MDJ foliar spray): 0.44%
- Terpene content: Methyl thiohexanoate ([5]; 1 mM MDJ foliar spray): 0.05%
- Terpene content: Myrcene ([5]; 1 mM MDJ foliar spray): 27.0%
- Terpene content: Nerol ([5]; 1 mM MDJ foliar spray): 0.03%
- Terpene content: Ocimene ([5]; 1 mM MDJ foliar spray): 0.39%
- Terpene content: Terpinolene ([5]; 1 mM MDJ foliar spray): 0.25%
- Terpene content: Unidentified ([5]; 1 mM MDJ foliar spray): 13.0%
- Terpene content: Geranyl acetate 1* ([5]; 1 mM MDJ foliar spray): 0.38%
- Terpene content: Geranyl acetate 2** ([5]; 1 mM MDJ foliar spray): 0.07%
- Terpene content: Nerolidol 1* ([5]; 1 mM MDJ foliar spray): 0.09%
- Terpene content: Nerolidol 2** ([5]; 1 mM MDJ foliar spray): 0.06%
- Terpene content: 2-Undecanone ([5]; 5 mM MDJ foliar spray): 0.01%
- Terpene content: Alpha-pinene ([5]; 5 mM MDJ foliar spray): 0.14%
- Terpene content: Beta-ionone ([5]; 5 mM MDJ foliar spray): 0.59%
- Terpene content: Beta-pinene ([5]; 5 mM MDJ foliar spray): 0.35%
- Terpene content: Caryophyllene ([5]; 5 mM MDJ foliar spray): 13.4%
- Terpene content: Caryophyllene oxide ([5]; 5 mM MDJ foliar spray): 0.04%
- Terpene content: Citral ([5]; 5 mM MDJ foliar spray): 0.11%
- Terpene content: Citronellene ([5]; 5 mM MDJ foliar spray): 0.42%
- Terpene content: Citronellol ([5]; 5 mM MDJ foliar spray): 0.00%
- Terpene content: Farnesene ([5]; 5 mM MDJ foliar spray): 0.03%
- Terpene content: Geraniol ([5]; 5 mM MDJ foliar spray): 0.78%
- Terpene content: Humulene ([5]; 5 mM MDJ foliar spray): 27.3%
- Terpene content: Limonene ([5]; 5 mM MDJ foliar spray): 0.09%
- Terpene content: Linalool ([5]; 5 mM MDJ foliar spray): 0.31%
- Terpene content: Methyl Heptanoate ([5]; 5 mM MDJ foliar spray): 0.05%
- Terpene content: Methyl Laurate ([5]; 5 mM MDJ foliar spray): 0.11%
- Terpene content: Methyl Octanoate ([5]; 5 mM MDJ foliar spray): 0.31%
- Terpene content: Methyl thiohexanoate ([5]; 5 mM MDJ foliar spray): 0.05%
- Terpene content: Myrcene ([5]; 5 mM MDJ foliar spray): 39.0%
- Terpene content: Nerol ([5]; 5 mM MDJ foliar spray): 0.00%
- Terpene content: Ocimene ([5]; 5 mM MDJ foliar spray): 0.28%
- Terpene content: Terpinolene ([5]; 5 mM MDJ foliar spray): 0.11%
- Terpene content: Unidentified ([5]; 5 mM MDJ foliar spray): 15.7%
- Terpene content: Geranyl acetate 1* ([5]; 5 mM MDJ foliar spray): 0.43%
- Terpene content: Geranyl acetate 2** ([5]; 5 mM MDJ foliar spray): 0.11%
- Terpene content: Nerolidol 1* ([5]; 5 mM MDJ foliar spray): 0.14%
- Terpene content: Nerolidol 2** ([5]; 5 mM MDJ foliar spray): 0.12%
- Terpene content: 2-Undecanone ([5]; 10 mM MDJ foliar spray): 0.07%
- Terpene content: Alpha-pinene ([5]; 10 mM MDJ foliar spray): 0.11%
- Terpene content: Beta-ionone ([5]; 10 mM MDJ foliar spray): 0.52%
- Terpene content: Beta-pinene ([5]; 10 mM MDJ foliar spray): 0.54%
- Terpene content: Caryophyllene ([5]; 10 mM MDJ foliar spray): 13.2%
- Terpene content: Caryophyllene oxide ([5]; 10 mM MDJ foliar spray): 0.07%
- Terpene content: Citral ([5]; 10 mM MDJ foliar spray): 0.20%
- Terpene content: Citronellene ([5]; 10 mM MDJ foliar spray): 0.39%
- Terpene content: Citronellol ([5]; 10 mM MDJ foliar spray): 0.00%
- Terpene content: Farnesene ([5]; 10 mM MDJ foliar spray): 0.02%
- Terpene content: Geraniol ([5]; 10 mM MDJ foliar spray): 0.82%
- Terpene content: Humulene ([5]; 10 mM MDJ foliar spray): 24.7%
- Terpene content: Limonene ([5]; 10 mM MDJ foliar spray): 0.09%
- Terpene content: Linalool ([5]; 10 mM MDJ foliar spray): 0.31%
- Terpene content: Methyl Heptanoate ([5]; 10 mM MDJ foliar spray): 0.06%
- Terpene content: Methyl Laurate ([5]; 10 mM MDJ foliar spray): 0.19%
- Terpene content: Methyl Octanoate ([5]; 10 mM MDJ foliar spray): 0.24%
- Terpene content: Methyl thiohexanoate ([5]; 10 mM MDJ foliar spray): 0.02%
- Terpene content: Myrcene ([5]; 10 mM MDJ foliar spray): 39.6%
- Terpene content: Nerol ([5]; 10 mM MDJ foliar spray): 0.02%
- Terpene content: Ocimene ([5]; 10 mM MDJ foliar spray): 0.16%
- Terpene content: Terpinolene ([5]; 10 mM MDJ foliar spray): 0.05%
- Terpene content: Unidentified ([5]; 10 mM MDJ foliar spray): 17.8%
- Terpene content: Geranyl acetate 1* ([5]; 10 mM MDJ foliar spray): 0.38%
- Terpene content: Geranyl acetate 2** ([5]; 10 mM MDJ foliar spray): 0.09%
- Terpene content: Nerolidol 1* ([5]; 10 mM MDJ foliar spray): 0.17%
- Terpene content: Nerolidol 2** ([5]; 10 mM MDJ foliar spray): 0.22%
